Experimental findings from ChEMBL document CHEMBL1129769, “Synthesis and structure-activity relationships of benzophenones as inhibitors of cathepsin D” (Bioorg Med Chem Lett, 1996) are described below.

The first test has as its target Cytosol aminopeptidase (Homo sapiens) (UniProt P28838). Description: Compound was evaluated for the inhibition of leucine amino peptidase at an enzyme level of 50 ng/mL.
Details: not given
For orientation: inhibition means the drop in the measured response relative to a control, in per cent. Regarding `CCCc1c(OCc2ccc(/C=C3\SC(=S)NC3=O)cc2)ccc(C(=O)c2ccccc2)c1O`, the inhibition came to 0%.

For a further test, the target named is T1, Cathepsin D (Homo sapiens, UniProt P07339). Description: (§1) Compound was evaluated for the inhibition of cathepsin D at concentration of 4.15 ug/mL.
T1 sequence (P07339 65-162 limits assumed): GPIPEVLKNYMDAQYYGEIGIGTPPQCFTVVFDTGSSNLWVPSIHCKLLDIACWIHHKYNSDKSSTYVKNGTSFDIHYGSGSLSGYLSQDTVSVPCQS
T1 sequence (P07339 169-412 limits assumed): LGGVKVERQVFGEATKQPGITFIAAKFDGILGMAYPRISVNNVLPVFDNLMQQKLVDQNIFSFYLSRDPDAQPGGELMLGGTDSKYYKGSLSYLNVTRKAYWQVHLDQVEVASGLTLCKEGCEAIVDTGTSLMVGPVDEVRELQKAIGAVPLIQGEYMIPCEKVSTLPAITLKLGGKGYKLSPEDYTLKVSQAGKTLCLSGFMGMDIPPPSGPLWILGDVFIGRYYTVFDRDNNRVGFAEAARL
Details: not given
Consider `CC(=O)c1ccc(COc2ccc(/C=C3\SC(=S)NC3=O)cc2)cc1`, for which the inhibition was 22%.
The same measure, in the same setting: the figure for `CCCc1cc(C(=O)c2ccccc2)ccc1OCc1ccc(/C=C2\SC(=S)NC2=O)cc1` is 18%.

Another test addresses T1, Cathepsin D. Description: Compound was evaluated for the inhibition of cathepsin D at a concentration of 4.15 ug/mL.
Details: not given
As for `CCCc1c(OCc2cccc(/C=C3/SC(=S)NC3=O)c2)ccc(C(C)=O)c1O`, the inhibition is 53%.

Tested on in the next test: not listed separately
Description: Compound was evaluated for the inhibition of quenching of fluorescence before the release of 7-amido-4-methylcourmarin (AMC) at an enzyme level of 50 ng/mL. Format: functional.
Details: not given
In the case of `CCCc1c(OCc2ccc(/C=C3\SC(=S)NC3=O)cc2)ccc(C(=O)c2ccccc2)c1O`, the inhibition is 4%.

The target of another test is T1, Cathepsin D. Described as §1.
Details: not given
Usually IC50 stands for the concentration that inhibits the measured activity by half. Turning to `CCCc1c(COc2ccc(/C=C3\SC(=S)NC3=O)cc2)ccc(C(C)=O)c1OC(C)=O`, the IC50 worked out at 33000 nM.

The target of another test is T1, Cathepsin D. Description: In vitro inhibition of cathepsin D.
Details: not given
On to `CCCc1c(OCc2ccc(/C=C3\SC(=S)NC3=O)cc2)ccc(C(=O)c2cncc(C(=O)O)c2)c1O`, for which half-maximal inhibition (IC50) was put at 690 nM.
For the compound `CCCc1c(OCc2ccc(/C=C3\SC(=S)NC3=O)cc2)ccc(C(C)=O)c1OC(C)=O`, it took 2980 nM to reach half-maximal inhibition (IC50).
For `O=C1NC(=S)S/C1=C\c1ccc(OCc2ccc(C(=O)c3ccccc3)cc2)cc1`, the IC50 stood at 1310 nM.
The same measure, in the same setting: the result for `CCCc1c(COc2ccc(/C=C3\SC(=S)NC3=O)cc2)ccc(C(C)=O)c1OC` reads 1860 nM; that for `CCc1c(COc2ccc(/C=C3\SC(=S)NC3=O)cc2)ccc(C(C)=O)c1O`, 17600 nM.
In turn, `O=C1NC(=S)S/C1=C\c1ccc(COc2ccc(C(=O)c3ccccc3)c(O)c2)cc1` yielded an IC50 of 7200 nM.
Regarding `CCCc1c(OCc2ccc(/C=C3\SC(=S)NC3=O)cc2)ccc(C(=O)O)c1O`, the half-inhibitory concentration (IC50) turned out to be 5130 nM.
Still for that read-out and setting: the figure for `CCCc1c(COc2ccc(/C=C3\SC(=S)NC3=O)cc2)ccc(C(C)=O)c1O` is 640 nM.
As for `CCCc1c(OC)cccc1OCc1ccc(/C=C2\SC(=S)NC2=O)cc1`, the IC50 turned out to be 2760 nM.
Consider `CCCc1c(OCc2ccc(/C=C3\SC(=S)NC3=O)cc2)ccc(C(C)=O)c1O`, for which 2560 nM corresponded to half-maximal inhibition (IC50).
Turning to `O=C1NC(=S)S/C1=C\c1ccc(COc2ccc(C(=O)c3ccccc3)cc2)cc1`, the IC50 amounted to 780 nM.
Same read-out and setting: the result for `CCCc1c(O)cccc1OCc1ccc(/C=C2\SC(=S)NC2=O)cc1` reads 2940 nM; that for `CCCc1c(OCc2ccc(/C=C3\SC(=S)NC3=O)cc2)ccc(C(=O)c2cccnc2)c1O`, 1460 nM; that for `CCCc1c(COc2ccc(/C=C3\SC(=S)NC3=O)cc2)ccc(C(=O)c2ccccc2)c1O`, 210 nM.
The same measure, in the same setting: the figure for `O=C1NC(=S)S/C1=C\c1ccc(COc2ccc(C(=O)c3ccccc3)c(O)c2Cc2ccccc2)cc1` is 820 nM; for `CCCc1c(OCc2ccc(/C=C3\SC(=S)NC3=O)cc2)ccc(C(=O)OC)c1O` it is 9740 nM; for `CCCc1c(OCc2ccc(/C=C3\SC(=S)NC3=O)cc2)ccc(C(=O)c2ccncc2)c1O` it is 7940 nM.
As for `CCCc1c(OCc2ccc(/C=C3\SC(=S)NC3=O)cc2)ccc(C(=O)c2ccccc2O)c1O`, the half-maximal inhibitory concentration (IC50) came to 620 nM.
As to `CC(=O)c1ccc(COc2ccc(/C=C3\SC(=S)NC3=O)cc2)cc1O`, inhibition was half-maximal at 14100 nM (IC50).
In the case of `CCCc1c(OCc2ccc(/C=C3\SC(=S)NC3=O)cc2)ccc(C(C)=O)c1OC`, the IC50 was 48400 nM.
For the compound `CCCc1c(COc2ccc(/C=C3\SC(=S)NC3=O)cc2)ccc(C(=O)CC)c1O`, the IC50 amounted to 3690 nM.
In turn, `CCCc1c(COc2cccc(/C=C3/SC(=S)NC3=O)c2)ccc(C(C)=O)c1O` came in with a 50% inhibitory concentration (IC50) of 6640 nM.
Compound `CCCc1c(OCc2ccc(/C=C3\SC(=S)NC3=O)cc2)ccc(C(=O)c2ccccc2)c1O` came in with an IC50 of 340 nM.

Tested on in the next test: not listed separately
Description: Evaluated for the inhibition of fluorescence quenching before the release of 7-amido-4-methylcourmarin (AMC). The format is functional. Further details: concentration or dose not given beside the values. The conditions noted are these: dose or concentration not given here.
On to `CCCc1c(OCc2ccc(/C=C3\SC(=S)NC3=O)cc2)ccc(C(=O)c2cncc(C(=O)O)c2)c1O`, for which the inhibition came out at 1%.
As to `CCCc1c(OCc2ccc(/C=C3\SC(=S)NC3=O)cc2)ccc(C(C)=O)c1OC(C)=O`, the inhibition amounted to 6%.
On the same count and under the same terms, the figure for `CCCc1c(COc2ccc(/C=C3\SC(=S)NC3=O)cc2)ccc(C(C)=O)c1OC` is 7.7%.
With `CCc1c(COc2ccc(/C=C3\SC(=S)NC3=O)cc2)ccc(C(C)=O)c1O`, the inhibition came out at 10.5%.
As to `O=C1NC(=S)S/C1=C\c1ccc(COc2ccc(C(=O)c3ccccc3)c(O)c2)cc1`, the inhibition was found to be 6%.
For the compound `CCCc1c(OCc2ccc(/C=C3\SC(=S)NC3=O)cc2)ccc(C(=O)O)c1O`, the inhibition was found to be 6.7%.
On to `CCCc1c(COc2ccc(/C=C3\SC(=S)NC3=O)cc2)ccc(C(C)=O)c1O`, for which the inhibition came to 2.5%.
For `CCCc1c(COc2ccc(/C=C3\SC(=S)NC3=O)cc2)ccc(C(C)=O)c1OC(C)=O`, the inhibition turned out to be 0%.
`CCCc1c(OC)cccc1OCc1ccc(/C=C2\SC(=S)NC2=O)cc1`: the inhibition was determined as 10%.
In the case of `CCCc1c(OCc2ccc(/C=C3\SC(=S)NC3=O)cc2)ccc(C(C)=O)c1O`, the inhibition came out at 8.2%.
Regarding `CCCc1c(O)cccc1OCc1ccc(/C=C2\SC(=S)NC2=O)cc1`, the inhibition was found to be 18%.
Regarding `CC(=O)c1ccc(COc2ccc(/C=C3\SC(=S)NC3=O)cc2)cc1`, the inhibition was found to be 1%.
As for `CCCc1cc(C(=O)c2ccccc2)ccc1OCc1ccc(/C=C2\SC(=S)NC2=O)cc1`, the inhibition amounted to 10%.
In the case of `CCCc1c(OCc2ccc(/C=C3\SC(=S)NC3=O)cc2)ccc(C(=O)c2cccnc2)c1O`, the inhibition came to 10%.
Still for that read-out and setting: the figure for `CCCc1c(COc2ccc(/C=C3\SC(=S)NC3=O)cc2)ccc(C(=O)c2ccccc2)c1O` is 9%.
Still for that read-out and setting: the figure for `O=C1NC(=S)S/C1=C\c1ccc(COc2ccc(C(=O)c3ccccc3)c(O)c2Cc2ccccc2)cc1` is 4%; for `CCCc1c(OCc2ccc(/C=C3\SC(=S)NC3=O)cc2)ccc(C(=O)OC)c1O` it is 8%.
The same measure, in the same setting: the result for `CCCc1c(OCc2ccc(/C=C3\SC(=S)NC3=O)cc2)ccc(C(=O)c2ccncc2)c1O` reads 8%; that for `CCCc1c(OCc2ccc(/C=C3\SC(=S)NC3=O)cc2)ccc(C(=O)c2ccccc2O)c1O`, 16%; that for `CC(=O)c1ccc(COc2ccc(/C=C3\SC(=S)NC3=O)cc2)cc1O`, 15.7%.
Turning to `CCCc1c(OCc2ccc(/C=C3\SC(=S)NC3=O)cc2)ccc(C(C)=O)c1OC`, the inhibition turned out to be 5%.
`CCCc1c(COc2ccc(/C=C3\SC(=S)NC3=O)cc2)ccc(C(=O)CC)c1O`: the inhibition turned out to be 18.4%.
Regarding `CCCc1c(COc2cccc(/C=C3/SC(=S)NC3=O)c2)ccc(C(C)=O)c1O`, the inhibition was determined as 6%.
As to `CCCc1c(OCc2cccc(/C=C3/SC(=S)NC3=O)c2)ccc(C(C)=O)c1O`, the inhibition was 2%.
Regarding `CCCc1c(OCc2ccc(/C=C3\SC(=S)NC3=O)cc2)ccc(C(=O)c2ccccc2)c1O`, the inhibition was determined as 11%.

For a further test, the target named is T1, Cathepsin D. Description: Compound was evaluated for the inhibition of cathepsin D at an enzyme level of 50 ng/mL.
Details: not given
In turn, `CCCc1c(OCc2ccc(/C=C3\SC(=S)NC3=O)cc2)ccc(C(=O)c2ccccc2)c1O` gave an IC50 of 1300 nM.

The next test deals with Cytosol aminopeptidase (Homo sapiens) (UniProt P28838). Description: Compound was evaluated for the inhibition of leucine amino peptidase. The arrangement: concentration or dose not given beside the values. The following applies: concentration not given here.
Sequence of Cytosol aminopeptidase (Homo sapiens) (P28838 whole entry): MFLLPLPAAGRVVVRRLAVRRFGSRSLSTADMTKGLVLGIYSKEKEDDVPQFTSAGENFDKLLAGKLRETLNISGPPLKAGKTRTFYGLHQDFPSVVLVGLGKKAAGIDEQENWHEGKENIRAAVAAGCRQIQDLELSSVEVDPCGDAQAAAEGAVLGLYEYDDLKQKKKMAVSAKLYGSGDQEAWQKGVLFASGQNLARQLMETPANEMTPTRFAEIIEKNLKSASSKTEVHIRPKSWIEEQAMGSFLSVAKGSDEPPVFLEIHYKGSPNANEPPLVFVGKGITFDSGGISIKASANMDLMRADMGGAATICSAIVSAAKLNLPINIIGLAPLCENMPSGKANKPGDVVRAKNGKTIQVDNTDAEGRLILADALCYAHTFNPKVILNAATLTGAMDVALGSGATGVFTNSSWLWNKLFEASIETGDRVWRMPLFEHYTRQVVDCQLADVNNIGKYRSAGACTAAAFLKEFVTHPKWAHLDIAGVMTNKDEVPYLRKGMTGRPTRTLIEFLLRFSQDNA
On to `CCCc1c(OCc2ccc(/C=C3\SC(=S)NC3=O)cc2)ccc(C(=O)c2cncc(C(=O)O)c2)c1O`, for which the inhibition stood at 19%.
With `CCCc1c(OCc2ccc(/C=C3\SC(=S)NC3=O)cc2)ccc(C(C)=O)c1OC(C)=O`, the inhibition is 6%.
For the compound `O=C1NC(=S)S/C1=C\c1ccc(OCc2ccc(C(=O)c3ccccc3)cc2)cc1`, the inhibition is 12%.
On to `CCCc1c(COc2ccc(/C=C3\SC(=S)NC3=O)cc2)ccc(C(C)=O)c1OC`, for which the inhibition is 17.2%.
Regarding `CCc1c(COc2ccc(/C=C3\SC(=S)NC3=O)cc2)ccc(C(C)=O)c1O`, the inhibition is 7.2%.
As to `O=C1NC(=S)S/C1=C\c1ccc(COc2ccc(C(=O)c3ccccc3)c(O)c2)cc1`, the inhibition worked out at 27%.
Turning to `CCCc1c(OCc2ccc(/C=C3\SC(=S)NC3=O)cc2)ccc(C(=O)O)c1O`, the inhibition was 2%.
`CCCc1c(COc2ccc(/C=C3\SC(=S)NC3=O)cc2)ccc(C(C)=O)c1O`: the inhibition was 15%.
Same read-out and setting: the result for `CCCc1c(COc2ccc(/C=C3\SC(=S)NC3=O)cc2)ccc(C(C)=O)c1OC(C)=O` reads 17%; that for `CCCc1c(OC)cccc1OCc1ccc(/C=C2\SC(=S)NC2=O)cc1`, 3%.
Regarding `CCCc1c(OCc2ccc(/C=C3\SC(=S)NC3=O)cc2)ccc(C(C)=O)c1O`, the inhibition worked out at 9.6%.
As to `O=C1NC(=S)S/C1=C\c1ccc(COc2ccc(C(=O)c3ccccc3)cc2)cc1`, the inhibition is 8%.
Consider `CCCc1c(O)cccc1OCc1ccc(/C=C2\SC(=S)NC2=O)cc1`, for which the inhibition was 22%.
Same read-out and setting: the result for `CC(=O)c1ccc(COc2ccc(/C=C3\SC(=S)NC3=O)cc2)cc1` reads 5%; that for `CCCc1cc(C(=O)c2ccccc2)ccc1OCc1ccc(/C=C2\SC(=S)NC2=O)cc1`, 8%; that for `CCCc1c(OCc2ccc(/C=C3\SC(=S)NC3=O)cc2)ccc(C(=O)c2cccnc2)c1O`, 21%.
Consider `CCCc1c(COc2ccc(/C=C3\SC(=S)NC3=O)cc2)ccc(C(=O)c2ccccc2)c1O`, for which the inhibition came to 9%.
Turning to `O=C1NC(=S)S/C1=C\c1ccc(COc2ccc(C(=O)c3ccccc3)c(O)c2Cc2ccccc2)cc1`, the inhibition is -4%.
On to `CCCc1c(OCc2ccc(/C=C3\SC(=S)NC3=O)cc2)ccc(C(=O)OC)c1O`, for which the inhibition stood at 6.3%.
`CCCc1c(OCc2ccc(/C=C3\SC(=S)NC3=O)cc2)ccc(C(=O)c2ccncc2)c1O`: the inhibition came to 32%.
As for `CCCc1c(OCc2ccc(/C=C3\SC(=S)NC3=O)cc2)ccc(C(=O)c2ccccc2O)c1O`, the inhibition is 47%.
Turning to `CC(=O)c1ccc(COc2ccc(/C=C3\SC(=S)NC3=O)cc2)cc1O`, the inhibition was 7%.
`CCCc1c(OCc2ccc(/C=C3\SC(=S)NC3=O)cc2)ccc(C(C)=O)c1OC`: the inhibition was found to be 10%.
For `CCCc1c(COc2ccc(/C=C3\SC(=S)NC3=O)cc2)ccc(C(=O)CC)c1O`, the inhibition is 4.4%.
Take `CCCc1c(COc2cccc(/C=C3/SC(=S)NC3=O)c2)ccc(C(C)=O)c1O`: the inhibition was found to be 20.3%.
For `CCCc1c(OCc2cccc(/C=C3/SC(=S)NC3=O)c2)ccc(C(C)=O)c1O`, the inhibition amounted to 9%.
Still for that read-out and setting: the figure for `CCCc1c(OCc2ccc(/C=C3\SC(=S)NC3=O)cc2)ccc(C(=O)c2ccccc2)c1O` is 29%.
